Laboratory results as given in patent US20170333390A1, “PHYTOCHEMICAL COMPOSITIONS INCLUDING SESAMIN FOR ANTI-INFLAMMATORY, ANTI-CYTOKINE STORM, AND OTHER USES” (CHIANG MAI UNIVERSITY, priority 2009, published 2017).

System: IL-1 gene expression in LPS induced synovial fibroblast (SF) cells
Assay: IL-1 gene expression relative to GAPDH in LPS induced synovial fibroblast cells (RT-PCR)
Assay type: cell-based
Conditions: 24 hours
Description: Experiments were conducted to evaluate the effect of particular phytochemical compositions provided by the present disclosure on IL-1 gene expression in specified cells found within a body of a living organism. The cells used for the experiments described in example one are lipopolysaccharide (LPS) induced synovial fibroblast (SF) cells. The SF cells were isolated from synovium tissue (also referred to as synovial tissue) using standard cell isolation techniques or methods known to a person of ordinary skill in the art. In addition, LPS is obtained from a commercial source, for example Sigma-Aldrich Co. It is understood by a person having ordinary skill in the art that the SF cells may be substituted with other immune cells found within the body, for example peripheral blood mononuclear cells, lymphocytes, monocytes, and macrophages, which can be isolated using techniques or methods known to a person of ordinary skill in the art. […]
The amount or level of IL-1 gene expression in the SF cells was measured or determined using methods or techniques known to a person having ordinary skill in the relevant art. In example 1, Real-Time PCR (RT-PCR) was used for quantifying the amount of IL-1 gene expression in the SF cells. IL-1beta or IL-1β specific primers were used during RT-PCR, thereby facilitating the quantification of IL-1β gene expression in the SF cells. […]

Question: Which “decrease in IL-1 gene expression relative to GAPDH” value (0.025 mM sesamin (culture 4), compared to control culture 3 (LPS 0.2 μg/ml + DMSO)) does the source give for c1cc2c(cc1[C@H]1OC[C@H]3[C@@H]1CO[C@@H]3c1ccc3c(c1)OCO3)OCO2 [sesamin] here?
Answer: approximately 20%

Question: What about the “decrease in IL-1 gene expression relative to GAPDH” value (1.0 mM sesamin (culture 9), compared to control culture 2 (LPS 0.2 μg/ml)) of the same compound?
Answer: approximately 65%
